Key:
Nrf2 = Nrf2 reporter (ARE-luciferase) assay; assay type: cell-based, human; conditions: HT29, 50 μM, 24 h
Procedure: Nrf2-Reporter assay: ARE-luciferase plasmid vector was obtained from Cayman Chemicals. HT29 cells were transfected at 50% confluency using lipofectamine 3000 reagent (ThermoFisher Scientific). Briefly, cells were seeded in 6-well plates (0.5×10^6 cells) and grown for 24 h. The transfection complex containing 1 μg of plasmid DNA and transfection reagent was added to each well in absence of FBS. After 6 hr medium containing 10% FBS was added and cells were incubated for another 16-18 hr. These cells were treated with vehicle (0.01% DMSO) or UroA (50 μM) or UAS03 (50 μM) or sulforaphane (10 μM) for 24 h. After incubation with inducers, cells were lysed and firefly luciferase activities (luminiscence) were measured with Luciferase Assay System (Promega) using multiwell plate luminometer (BMG, LABTECH).

C57BL/6 mice = assay: LPS-induced peritonitis mouse model; assay type: in vivo; conditions: 20 mg/kg; LPS 2 mg/kg i.p.; 4 h post LPS
Procedure: FIG. 1: UAS03 is a potent anti-inflammatory structural analogue of UroA and induces tight junction proteins. (A) Chemical structures of UroA, UAS03. UroA/UAS03 stability was examined in the presence of gastric pH 2.0 and digestive enzymes. UroA and UAS03 (0.2 mg/ml) were incubated with digestive enzymes (esterases and proteases, 100 U/ml) for 12 h at 37° C. and compound levels were quantified. (B) BMDMs were stimulated with LPS (50 ng/ml) without or with UroA (blue line)/UAS03 (purple line) (0.1, 1, 10, 25 and 50 μM) for 6 hours. IL-6 and TNF-α levels in supernatants were measured. (C) C57BL/6 mice (n=3-4) were pretreated with UroA (20 mg/kg) and UAS03 (20 mg/kg). After 4 hours, LPS (2 mg/kg) was injected intraperitoneally. Post 4 h of LPS administration, serum levels of IL-6 and TNF-α was measured. […] (G) The fold changes in mRNA levels of claudin 4 (Cldn4), occludin (Ocln) and Zona occludens 1 (ZO1) in HT29 cells were determined by RT PCR method. (H) UroA/UAS03 induced protein expression of Cldn4, Ocln and ZO1 in HT29 cells were determined by immunoblots and quantified by Image J software. […] The green intensity (n=15-20 cell membrane regions) was measured. […] The protein lysates were prepared from colon scrapes and subjected to immunoblots and detected the expression of the (J) Nrf2, HO1, Cldn4 and (K) AhR using appropriate antibodies as described in methods. […]

Row | Structure (SMILES) | ARE-luciferase luminescence (Nrf2) | LPS-induced increase in serum IL-6 and TNF-α levels (C57BL/6 mice)
1 | O=c1oc2cc(O)ccc2c2ccc(O)cc12 [UroA, 3,8-dihydroxy-6H-dibenzo[b,d]pyran-6-one] | enhanced luminescence | reduced
2 | Oc1ccc2c(c1)COc1cc(O)ccc1-2 [UAS03, 6H-benzo[c]chromene-3,8-diol] | enhanced luminescence | reduced

From patent US12377069B2, “Compounds, compositions, methods of using, and methods for preparing compounds” (UNIVERSITY OF LOUISVILLE RESEARCH FOUNDATION, INC., priority 2018, dated 2025)
